≈ marks a conversion by molar mass, not a printed value.
Assays:
U87 cells [1] = assay: Low density growth assay; assay type: cell-based, human; conditions: 4Gy plus 1 μM or 10 μM Si306, 15 days
Procedure: U87 cells capacity for growth at clonal density, was evaluated by plating cells at density of 10 cells/cm^2 in 10% fetal bovine supplemented DMEM. After 2 weeks of culture, adherent cells were fixed with cold methanol, washed with PBS/BSA and air-dried. Adherent cells were stained with 0.5% crystal violet for 15 minutes at room temperature. The stained colonies were photomicrographed and analyzed by number and size with the public domain software ImageJ (by Wayne Rasband, http://rsb.info.nih.gov/ij/). Mean and SD values of at least three different experiments are shown.

[2] = In vivo pharmacokinetics / biodistribution; design: species or system mice; conditions: administered compound itself, 50 mg/Kg i.p., BALB/C mice
Procedure: The animal protocols used were reviewed and approved by the Animal Care and Ethics Committee of the Universita{grave over ( )} degli Studi di Siena, Italy. Male BALB/C mice (weight 20-30 g) were obtained from Charles River (Milan, Italy). […] The blood, previously heparinized, was centrifuged at 4000 rpm for 20 minutes to separate the plasma fraction and then 500 μl were collected in a test tube. […] Samples were centrifuged at 4000 rpm for 20 minutes, the supernatant was recovered, dried under vacuum and analyzed by LC-UV-MS. Brain was homogenized using a glass/glass Potter-Elvehjem homogenizer in presence of Tris-HCl buffer (50 mM) and compounds were recovered using 7 mL of ACN then treated as previously described for blood samples.

U87 cells [3] = assay: Proliferation assay on U87 cells; assay type: cell-based, human
Procedure: (§1) U87 and U251 cells were purchased from European Collection of Cell Cultures (ECACC, Salisbury, UK) and were cultured in DMEM medium supplemented with 10% Foetal Bovine Serum. In order to determine antiproliferative effect of drugs tumor cells were seeded at 2×10^5 cells/ml density and treated with compounds at indicated concentrations. The cultures were maintained at 37° C. in 5% v/v CO2 for 72 h. Cell number and viability were evaluated by Trypan blue exclusion test. Viable cells were expressed as percentage respect to cells treated with vehicle (=100%). Mean and SD values of at least three different experiments are shown.
(§2) U87 and U251 cells were purchased from European Collection of Cell Cultures (ECACC, Salisbury, UK) and were cultured in DMEM medium supplemented with 10% Foetal Bovine Serum. In order to determine antiproliferative effect of drugs tumor cells were seeded at 2×10^5 cells/ml density and treated with compounds at indicated concentrations. The cultures were maintained at 37° C. in 5% v/v CO2 for 72 h. Cell number and viability were evaluated by Trypan blue exclusion test. Viable cells were expressed as percentage respect to untreated cells (=100%/). Mean and SD values of at least three different experiments are shown.

Recombinant human Abl = molecular target: T1, Recombinant human Abl (Homo sapiens, UniProt P00519); assay: Enzymatic assay on isolated Abl; assay type: biochemical; conditions: mean of at least two experiments
T1 construct: purchased Upstate
Procedure: Recombinant human Abl was purchased from Upstate.
Activity was measured in a filter binding assay using an Abl specific peptide substrate (Abtide, Upstate).

PAMPA, BBB permeability = conditions: Membrane Retention, BBB
Procedure: Donor solution (0.5 mM) was prepared by diluting 1 mM dimethylsulfoxide (DMSO) compound stock solution using phosphate buffer (pH 7.4, 0.025 M). […] Donor solution (150 μL) was added to each well of the filter plate. To each well of the acceptor plate were added 300 μL of solution (50% DMSO in phosphate buffer). All compounds were tested in three different plates on different days. The sandwich was incubated for 5 h at room temperature under gentle shaking. After the incubation time, the plates were separated, and samples were taken from both receiver and donor sides and analyzed using LC with UV detection at 280 nm.
Permeability (Papp) for PAMPA was calculated according to the following equation, obtained from Wohnsland and Faller^27 and Sugano et al.^28 equation with some modification in order to obtain permeability values in cm s^−1,
Drug concentration is estimated by using the peak area integration. Membrane retentions (%) were calculated according to the following equation:
where r is the ratio between drug concentration in the acceptor and equilibrium concentration, D, A, and Eq represented drug concentration in the donor, acceptor and equilibrium solution, respectively.
Donor solution of tested compounds (0.5 mM) was prepared by diluting 1 mM dimethylsulfoxide (DMSO) compound stock solution using phosphate buffer (pH 7.4, 25 mM). […] Donor solution (150 μL) was added to each well of the filter plate. To each well of the acceptor plate were added 300 μL of solution (50% DMSO in phosphate buffer). Compounds was tested in three different plates on different days. The sandwich was incubated for 5 h at room temperature under gentle shaking.
Permeability (Papp) for PAMPA was calculated according to the following equation, obtained from Wohnsland and Faller and Sugano et al.^27, 28.
Drug concentration is estimated by using the peak area integration. Membrane retention (%) was calculated according to the following equation:

[4] = test system: SH-SY5Y neuroblastoma cells; assay: SH-SY5Y xenograft mouse model; assay type: in vivo, mice
Procedure: Male CD1 nude mice (Charles River, Milan, Italy) were maintained under the guidelines established by the inventors' Institution (University of L'Aquila, Medical School and Science and Technology School Board Regulations, complying with the Italian government regulation n. 116 Jan. 27 1992 for the use of laboratory animals). Before any invasive manipulation, mice were anesthetized with a mixture of ketamine (25 mg/mL)/xylazine (5 mg/mL). Tumor grafts were obtained by injecting s.c. 1×10^6 SH-SY5Y cells in 100 μL of 12 mg/mL Matrigel (Becton Dickinson, Franklin Lakes, N.J., USA). Tumor growth was monitored daily by measuring the average tumor diameter. The tumor volume was expressed in mm^3 according to the formula 4/3πr^3.

U87 cells [5] = assay: U87 xenograft; assay type: in vivo, mice
Procedure: Male CD1 nude mice (Charles River, Milan, Italy) were maintained under the guidelines established by University of L'Aquila, Medical School and Science and Technology School Board Regulations, complying with the Italian government regulations for the use of laboratory animals. Before any invasive manipulation, mice were anesthetized with a mixture of ketamine (25 mg/ml)/xylazine (5 mg/ml). Tumor grafts were obtained by injecting s.c. 1×10^6 U87 cells in 100 μL of 12 mg/mL Matrigel (Becton Dickinson, Franklin Lakes, N.J., USA). Mice were divided in four groups: treated with vehicle, treated with radiotherapy, treated with Si306 and treated with Si306 in combination with radiotherapy. […] At the endpoint, tumors were recovered and weighted. The tumor xenograft was irradiated once with 4Gy dose at first sign of palpable tumor mass.
Antibodies were purchased from Cell Signaling (Cell Signaling Technology, Inc.).

U87 cells [6] = assay: Orthotopic mouse model of GBM; assay type: in vivo, mice; conditions: 50 mg/kg three times per week for 4 weeks
Procedure: Survival curves (days) of orthotopic mouse model of GBM.
Male CD1 nude mice (Charles River, Milan, Italy) were maintained under the guidelines established by University of L'Aquila, Medical School and Science and Technology School Board Regulations, complying with the Italian government regulations for the use of laboratory animals. Before any invasive manipulation, mice were anesthetized with a mixture of ketamine (25 mg/ml)/xylazine (5 mg/ml). Tumor grafts were obtained by injecting with a Hamilton syringe mounted on a stereotactic instrument, 2*10^3 U87 cells resuspended in 2 microL PBS (David Kopf Instruments, CA, USA). The cells were injected after the exposition of periosteal cranic site and the drimming of a 1 mm diameter hole localized at 4 mm from striatum and with a depth of 4 mm. The wound was treated with antibiotics and was surgically sutured.

human fibroblast wi38 = assay: TGF-beta induced myofibroblast differentiation, Western blot; assay type: cell-based; conditions: Si306 1 μM
Procedure: FIG. 17. Western blot analysis of PDGFR-beta and alpha-SMA expression.
Total cell lysates were obtained by incubating cells in a lysis buffer containing 1% triton, 0.1% SDS, 2 mM CaCl2, 10 mg/ml orthovanadate, and 1× protease inhibitors cocktail (Sigma, St. Louis, […]., USA). Protein content was determined using the Protein Assay Kit 2 (Bio-Rad Laboratories, Hercules, Calif., USA). Sixty micrograms of proteins were electrophoresed in 10% SDS-polyacrylamide gel. After electrophoresis gels were placed onto Trans-Blot Turbo mini nitrocellulose transfer pack and transferred using Trans-Bolt Turbo Transfer System (Bio-Rad Laboratories, Hercules, Calif., USA). The membrane was incubated with 1 μg/ml primary antibody and then with appropriate horseradish peroxidase-conjugated secondary antibodies. Primary antibodies β-actin, PDGFR-beta, alpha-SMA were purchased from Cell Signaling Technology; Protein bands were visualized using a chemiluminescent detection system (Thermo Scientific, Rockford, Ill., USA) and signals were digitally acquired by Chemidoc XRS system (Bio-Rad Laboratories).

[7] = Microsomal stability assay
U251 cells = assay: Proliferation assay on U251 cells; assay type: cell-based, human
Procedure: as §1, §2

T1 sequence (P00519 whole entry): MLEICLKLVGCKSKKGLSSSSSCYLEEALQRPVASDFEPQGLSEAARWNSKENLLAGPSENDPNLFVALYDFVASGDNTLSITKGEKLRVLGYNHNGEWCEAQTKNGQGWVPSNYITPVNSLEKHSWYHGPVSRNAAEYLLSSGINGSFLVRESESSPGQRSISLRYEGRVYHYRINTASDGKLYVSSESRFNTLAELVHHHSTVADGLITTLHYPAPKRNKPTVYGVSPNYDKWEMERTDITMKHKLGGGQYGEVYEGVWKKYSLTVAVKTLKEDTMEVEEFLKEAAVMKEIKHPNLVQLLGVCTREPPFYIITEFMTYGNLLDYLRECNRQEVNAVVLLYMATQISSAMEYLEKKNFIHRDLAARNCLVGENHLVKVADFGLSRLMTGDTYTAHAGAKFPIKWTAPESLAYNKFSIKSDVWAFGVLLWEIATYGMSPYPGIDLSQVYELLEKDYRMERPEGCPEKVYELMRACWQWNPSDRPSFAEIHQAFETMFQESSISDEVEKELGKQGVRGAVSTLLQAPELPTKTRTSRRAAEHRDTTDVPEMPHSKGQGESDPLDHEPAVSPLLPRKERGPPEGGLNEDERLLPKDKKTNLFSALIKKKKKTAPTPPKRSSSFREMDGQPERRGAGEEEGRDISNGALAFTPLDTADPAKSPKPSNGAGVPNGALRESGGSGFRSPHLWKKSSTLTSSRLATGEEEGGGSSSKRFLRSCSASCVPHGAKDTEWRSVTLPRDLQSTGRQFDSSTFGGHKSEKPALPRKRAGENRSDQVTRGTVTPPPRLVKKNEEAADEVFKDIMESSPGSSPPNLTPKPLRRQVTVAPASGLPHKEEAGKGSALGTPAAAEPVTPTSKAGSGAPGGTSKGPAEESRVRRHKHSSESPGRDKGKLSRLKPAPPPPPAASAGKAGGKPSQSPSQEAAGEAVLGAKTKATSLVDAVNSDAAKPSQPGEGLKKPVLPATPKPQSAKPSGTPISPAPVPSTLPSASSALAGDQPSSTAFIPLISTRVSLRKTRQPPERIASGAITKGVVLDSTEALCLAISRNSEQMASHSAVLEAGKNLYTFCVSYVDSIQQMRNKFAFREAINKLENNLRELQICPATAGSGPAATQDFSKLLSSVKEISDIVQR
Procedure for Water solubility assay: Each solid compound (1 mg) was added to 1 mL of water. […] The suspensions were filtered through a 0.45 μm nylon filter (Acrodisc), and the solubilized compound determined by LC-MS-MS assay. For each compound the determination was performed in triplicate. […] The flow rate was 0.2 mL min-^−1 and injection volume was 5 μL. The instrument operated in positive mode and parameters were: detector 1850 V, drying gas pressure 25.0 psi, desolvation temperature 300.0° C., nebulizing gas 40.0 psi, needle 5000 V and shield 600 V. Nitrogen was used as nebulizer gas and drying gas.
Solid compound (1 mg) was added to 1 mL of water. […] The suspensions were filtered through a 0.45-μm nylon filter (Acrodisc), and the solubilised compound determined by LC-UV-MS assay. The determination was performed in triplicate.
Chromatographic analysis was performed with the method above reported and quantification of compounds was made by comparison with apposite calibration curves realized with standard solutions in methanol.

ClC(Cn1ncc2c(Nc3cccc(Br)c3)nc(SCCN3CCOCC3)nc21)c1ccccc1 (centres unmarked) [Si306, N-(3-Bromophenyl)-1-(2-chloro-2-phenylethyl)-6-[(2-morpholin-4-ylethyl)thio]-1H-pyrazolo[3,4-d]pyrimidin-4-amine]
number of colonies, combination with radiotherapy (U87 cells [1]): reduced significantly the number of colonies
Quantity of Compound, BLOOD ([2]; 30′): 10.2 ± 4.82 nmol of compound/g of tissue
Quantity of Compound, BLOOD ([2]; 4 h): 2.6 ± 1.31 nmol of compound/g of tissue
Quantity of Compound, BLOOD ([2]; 8 h): 2.4 ± 0.29 nmol of compound/g of tissue
Quantity of Compound, BLOOD ([2]; 24 h): 1.1 ± 0.65 nmol of compound/g of tissue
Quantity of Compound, BRAIN ([2]; 15′): 0.3 ± 0.18 nmol of compound/g of tissue
Quantity of Compound, BRAIN ([2]; 24 h): 2.3 ± 0.70 nmol of compound/g of tissue
reduction of the total cell number vs control (U87 cells [3]; U87, 5 μM, 72 h): about 50%
dead cells (U87 cells [3]; U87, 30 μM, 72 h): more than 80%
antiproliferative effect in combination with mitomycin C (U87 cells [3]; U87, 72 h, 1 μM Si306 plus increasing mitomycin C): synergic antiproliferative effect
Ki (Recombinant human Abl): 0.12 µM
PAMPA BBB (MR %) (PAMPA, BBB permeability): (41.0) %
tumour growth inhibition ([4]; 50 mg/kg): significantly inhibited
signs of distress or weight loss ([4]; 50 mg/kg daily oral): did not shown signs of distress or weight loss
reduction in mean tumor volume compared to placebo ([4]; 50 mg/kg daily oral, 60 days): more than 50%
reduction of tumor weight vs CTR (U87 cells [5]; 50 mg/kg every other day for 30 days, alone): about 50%
myofibroblast content (alpha-SMA expression) in tumor masses (U87 cells [5]; immunohistochemistry of excised tumors): reduction of myofibroblast content
survival of mice respect to control group (U87 cells [6]): significant ability in prolonging survival
expression of PDGFR and alpha-SMA downstream of TGF-beta (human fibroblast wi38): able to block the expression of PDGFR and alpha-SMA
Metabolic Stab. % ([7]; percentage of unmodified drug, Table 8): 97.2%
Metabolic Stab. ([7]; percentage of unmodified parent drug, human liver microsomes 60 min): 96%
reduction of the total cell number vs control (U251 cells; U251, 5 μM, 72 h): about 50%
antiproliferative effect in combination with mitomycin C (U251 cells; U251, 72 h, 1 μM Si306 plus increasing mitomycin C): synergic antiproliferative effect
H2O Solubility (Water solubility assay; Table 6): 3.7 µg/mL
H2O Sol. (Water solubility assay; Table 8, 20° C., 24 h): 3.70 µg/mL
solubility at 24 h (Water solubility assay; water, 20 °C, thermodynamic from solid): 6.61 µM (≈ 3.79 µg/mL)
